What was measured:
[1] = target: Serine/threonine-protein kinase A-Raf (Homo sapiens) (UniProt P10398); experiment: Inhibition of recombinant human A-Raf (273 to end residues) assessed as residual activity at 0.5 uM using myelin as substrate incubated for 40 mins in presence of [gamma-33P]-ATP by scintillation counting method relative to control
[2] = Apparent permeability across apical to basolateral side in human Caco-2 cells incubated for 2 hrs by LC-MS/MS analysis; type: ADME, cell-based
[3] = Metabolic stability in human liver microsomes assessed as intrinsic clearance at 1 uM by LC-MS/MS analysis; type: ADME, Microsome; settings: read-out: CLH
[4] = Metabolic stability in rat liver microsomes assessed as intrinsic clearance at 1 uM by LC-MS/MS analysis; type: ADME, Microsome; settings: read-out: CLH
[5] = Metabolic stability in mouse liver microsomes assessed as intrinsic clearance at 1 uM by LC-MS/MS analysis; type: ADME, Microsome; settings: read-out: CLH
[6] = Metabolic stability in dog liver microsomes assessed as intrinsic clearance at 1 uM by LC-MS/MS analysis; type: ADME, Canis lupus familiaris, Microsome; settings: read-out: CLH
[7] = Protein binding in human plasma assessed as unbound fraction by LC-MS/MS based equilibrium dialysis method; type: ADME, cell-free
[8] = Protein binding in rat plasma assessed as unbound fraction by LC-MS/MS based equilibrium dialysis method; type: ADME, cell-free
[9] = Protein binding in mouse plasma assessed as unbound fraction by LC-MS/MS based equilibrium dialysis method; type: ADME, cell-free
[10] = Protein binding in dog plasma assessed as unbound fraction by LC-MS/MS based equilibrium dialysis method; type: ADME, cell-free, Canis lupus familiaris
Cytochrome P450 1A2 = target: T1, Cytochrome P450 1A2 (Homo sapiens, UniProt P05177); experiment: Inhibition of CYP1A2 in human pooled liver microsomes using phenacetin as substrate in presence of NADPH by LC-MS/MS analysis; type: ADME
T1 sequence (P05177 whole entry): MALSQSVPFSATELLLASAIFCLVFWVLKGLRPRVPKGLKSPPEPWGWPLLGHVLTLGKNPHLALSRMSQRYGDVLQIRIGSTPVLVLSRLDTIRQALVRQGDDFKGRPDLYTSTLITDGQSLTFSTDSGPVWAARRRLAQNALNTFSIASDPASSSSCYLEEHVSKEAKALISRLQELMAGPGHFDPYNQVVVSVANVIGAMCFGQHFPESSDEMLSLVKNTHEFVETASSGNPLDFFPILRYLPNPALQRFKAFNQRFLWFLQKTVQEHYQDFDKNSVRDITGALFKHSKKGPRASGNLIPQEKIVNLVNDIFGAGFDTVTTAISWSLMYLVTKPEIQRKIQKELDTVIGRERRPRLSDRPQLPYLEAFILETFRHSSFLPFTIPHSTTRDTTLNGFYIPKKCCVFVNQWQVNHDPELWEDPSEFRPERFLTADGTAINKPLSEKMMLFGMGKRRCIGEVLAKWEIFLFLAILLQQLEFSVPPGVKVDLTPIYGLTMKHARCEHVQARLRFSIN

Cytochrome P450 2C9 = Cytochrome P450 2C9 (Homo sapiens, UniProt P11712); experiment: Inhibition of CYP2C9 in human pooled liver microsomes using diclofenac as substrate in presence of NADPH by LC-MS/MS analysis; type: ADME
Cytochrome P450 2C19 = Cytochrome P450 2C19 (Homo sapiens, UniProt P33261); experiment: Inhibition of CYP2C19 in human pooled liver microsomes using S-mephenytoin as substrate in presence of NADPH by LC-MS/MS analysis; type: ADME
Cytochrome P450 2D6 = Cytochrome P450 2D6 (Homo sapiens, UniProt P10635); experiment: Inhibition of CYP2D6 in human pooled liver microsomes using dextromethorphan as substrate in presence of NADPH by LC-MS/MS analysis; type: ADME
Cytochrome P450 3A4 = Cytochrome P450 3A4 (Homo sapiens, UniProt P08684); experiment: Inhibition of CYP3A4 in human pooled liver microsomes using midazolam and testosterone as substrate in presence of NADPH by LC-MS/MS analysis; type: ADME
[11] = target: Fibroblast growth factor receptor 2 (Homo sapiens) (UniProt P21802); experiment: Inhibition of recombinant human FGFR2 (456 to 770 residues) assessed as residual activity at 0.5 uM using poly(Glu, Tyr) 4:1 as substrate at 40 mins in presence of [gamma-33ATP] by scintillation counting based radiometry assay relative to control
[12] = system: Hepatocyte growth factor receptor (Homo sapiens), P08581 [Y1248D]; experiment: Inhibition of recombinant human Met Y1248D mutant (974 to end residues) assessed as residual activity at 0.5 uM using KKKGQEEEYVFIE as substrate incubated for 40 mins in presence of [gamma-33P]-ATP by scintillation counting method relative to control
[13] = system: Platelet-derived growth factor receptor alpha (Homo sapiens), P16234 [V561D]; experiment: Inhibition of human PDGFRalpha V561D mutant (550 to end residues) assessed as residual activity at 0.5 uM using poly(Glu, Tyr) 4:1 as substrate measured after 40 mins in presence of [gamma33P]ATP by scintillation counting based radiometry assay relative to control
[14] = target: Tyrosine-protein kinase JAK2 (Homo sapiens) (UniProt O60674); experiment: Inhibition of human JAK2 (808 to end residues) assessed as residual activity at 0.5 uM using KTFCGTPEYLAPEVRREPRILSEEEQEMFRDFDYIADWC as substrate after 40 mins by [gamma-33ATP] radiometric assay relative to control
[15] = Clearance in male Sprague-Dawley rat at 2 mg/kg, iv measured up to 24 hrs by LC/MS/MS analysis; type: ADME, organism-based; settings: in vivo
BaF3 [16] = experiment: Cytotoxicity against mouse BaF3 cells transfected with TrKA G595R mutant assessed as reduction in cell viability by MTT assay; type: functional, cell-based
BaF3 [17] = experiment: Cytotoxicity against mouse BaF3 cells transfected with TrKA F589L mutant assessed as reduction in cell viability by MTT assay; type: functional, cell-based
BaF3 [18] = experiment: Cytotoxicity against mouse BaF3 cells transfected with TrKA G667A mutant assessed as reduction in cell viability by MTT assay; type: functional, cell-based
BaF3 [19] = experiment: Cytotoxicity against mouse BaF3 cells transfected with TrKA G623R mutant assessed as reduction in cell viability by MTT assay; type: functional, cell-based
BaF3 [20] = experiment: Cytotoxicity against mouse BaF3 cells transfected with SLC34A2-Ros1 assessed as reduction in cell viability by MTT assay; type: functional, cell-based
BaF3 [21] = experiment: cells; settings: Mus musculus
Description: Cytotoxicity against mouse BaF3 cells transfected with TrKA assessed as reduction in cell viability by MTT assay

in vitro = settings: human, Caco-2
Description: Efflux ratio of apparent permeability from basolateral to apical over apical to basolateral side in human Caco2 cells incubated for 2 hrs by LC-MS/MS analysis

[22] = Oral bioavailability in Sprague-Dawley rat at 10 mg/kg measured up to 24 hrs by LC/MS/MS analysis; type: ADME, organism-based; settings: in vivo
[23] = Toxicity in […] xenografted with mouse BaF3 cells transfected with ETV6-NTRK3 assessed as death at 100 mg/kg, po administered once daily for 21 days and measured twice weekly; type: organism-based; settings: in vivo, 504 h, time 21 day
cells = settings: Homo sapiens, CUTO-3
Description: Antiproliferative activity against TrK fused human CUTO-3 cells

[24] = Toxicity in mouse xenografted with mouse BaF3 cells transfected with LMNA-NTRK1 assessed as unkempt appearance at 100 mg/kg, po administered once daily for 21 days and measured twice weekly; settings: in vivo, 504 h

Cytochrome P450 2C19, sequence (P33261 whole entry): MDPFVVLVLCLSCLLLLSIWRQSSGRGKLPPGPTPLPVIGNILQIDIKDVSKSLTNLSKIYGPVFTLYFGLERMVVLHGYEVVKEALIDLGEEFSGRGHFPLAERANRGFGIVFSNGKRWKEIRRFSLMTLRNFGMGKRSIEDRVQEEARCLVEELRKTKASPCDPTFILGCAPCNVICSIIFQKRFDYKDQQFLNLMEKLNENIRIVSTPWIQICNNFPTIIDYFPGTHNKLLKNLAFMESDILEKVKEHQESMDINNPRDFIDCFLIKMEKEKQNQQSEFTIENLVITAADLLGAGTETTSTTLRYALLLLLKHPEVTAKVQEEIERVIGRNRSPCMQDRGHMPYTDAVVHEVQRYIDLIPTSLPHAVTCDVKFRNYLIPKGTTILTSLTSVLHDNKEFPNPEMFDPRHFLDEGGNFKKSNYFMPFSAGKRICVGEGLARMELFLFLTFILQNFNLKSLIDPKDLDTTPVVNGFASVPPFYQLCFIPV
Cytochrome P450 2C9, sequence (P11712 whole entry): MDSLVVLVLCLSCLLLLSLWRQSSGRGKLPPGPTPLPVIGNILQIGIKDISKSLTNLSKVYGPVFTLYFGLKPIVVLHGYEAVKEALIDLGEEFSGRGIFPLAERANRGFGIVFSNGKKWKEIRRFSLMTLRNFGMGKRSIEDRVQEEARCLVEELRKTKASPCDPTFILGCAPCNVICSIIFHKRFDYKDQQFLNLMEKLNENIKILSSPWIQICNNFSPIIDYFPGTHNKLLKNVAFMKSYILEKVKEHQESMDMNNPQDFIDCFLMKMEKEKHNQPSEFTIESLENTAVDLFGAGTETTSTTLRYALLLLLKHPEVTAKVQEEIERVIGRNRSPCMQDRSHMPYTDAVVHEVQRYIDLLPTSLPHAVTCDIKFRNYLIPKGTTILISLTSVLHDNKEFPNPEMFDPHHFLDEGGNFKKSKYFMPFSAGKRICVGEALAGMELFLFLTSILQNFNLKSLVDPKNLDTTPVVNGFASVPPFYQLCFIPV
Cytochrome P450 2D6, sequence (P10635 whole entry): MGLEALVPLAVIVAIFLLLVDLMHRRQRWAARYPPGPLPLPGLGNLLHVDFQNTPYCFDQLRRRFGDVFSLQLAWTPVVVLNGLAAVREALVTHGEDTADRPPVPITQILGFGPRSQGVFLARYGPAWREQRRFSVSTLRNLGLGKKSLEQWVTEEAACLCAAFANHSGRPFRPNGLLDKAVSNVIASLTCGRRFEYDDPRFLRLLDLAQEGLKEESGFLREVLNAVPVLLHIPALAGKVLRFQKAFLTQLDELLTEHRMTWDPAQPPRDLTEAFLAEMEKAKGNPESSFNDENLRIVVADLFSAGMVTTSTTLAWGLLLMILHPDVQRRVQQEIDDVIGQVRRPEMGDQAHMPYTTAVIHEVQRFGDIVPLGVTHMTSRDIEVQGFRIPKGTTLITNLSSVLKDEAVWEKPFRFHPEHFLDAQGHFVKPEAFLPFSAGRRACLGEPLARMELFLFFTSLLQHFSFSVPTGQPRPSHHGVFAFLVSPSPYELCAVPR
Cytochrome P450 3A4, sequence (P08684 whole entry, the tested form may be a part): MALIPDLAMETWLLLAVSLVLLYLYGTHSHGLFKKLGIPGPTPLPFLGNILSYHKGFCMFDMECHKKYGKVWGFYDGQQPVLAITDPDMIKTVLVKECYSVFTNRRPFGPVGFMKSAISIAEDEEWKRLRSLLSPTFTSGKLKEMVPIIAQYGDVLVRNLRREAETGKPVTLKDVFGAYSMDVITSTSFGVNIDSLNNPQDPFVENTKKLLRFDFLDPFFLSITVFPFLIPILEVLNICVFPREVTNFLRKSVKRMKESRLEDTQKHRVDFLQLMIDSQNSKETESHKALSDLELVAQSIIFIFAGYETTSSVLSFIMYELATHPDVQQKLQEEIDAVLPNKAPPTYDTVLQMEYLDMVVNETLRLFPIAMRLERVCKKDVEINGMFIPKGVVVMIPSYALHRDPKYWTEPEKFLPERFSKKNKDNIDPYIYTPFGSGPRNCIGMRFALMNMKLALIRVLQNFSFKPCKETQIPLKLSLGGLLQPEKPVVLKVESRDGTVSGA
Tyrosine-protein kinase JAK2 (Homo sapiens), sequence (O60674 whole entry): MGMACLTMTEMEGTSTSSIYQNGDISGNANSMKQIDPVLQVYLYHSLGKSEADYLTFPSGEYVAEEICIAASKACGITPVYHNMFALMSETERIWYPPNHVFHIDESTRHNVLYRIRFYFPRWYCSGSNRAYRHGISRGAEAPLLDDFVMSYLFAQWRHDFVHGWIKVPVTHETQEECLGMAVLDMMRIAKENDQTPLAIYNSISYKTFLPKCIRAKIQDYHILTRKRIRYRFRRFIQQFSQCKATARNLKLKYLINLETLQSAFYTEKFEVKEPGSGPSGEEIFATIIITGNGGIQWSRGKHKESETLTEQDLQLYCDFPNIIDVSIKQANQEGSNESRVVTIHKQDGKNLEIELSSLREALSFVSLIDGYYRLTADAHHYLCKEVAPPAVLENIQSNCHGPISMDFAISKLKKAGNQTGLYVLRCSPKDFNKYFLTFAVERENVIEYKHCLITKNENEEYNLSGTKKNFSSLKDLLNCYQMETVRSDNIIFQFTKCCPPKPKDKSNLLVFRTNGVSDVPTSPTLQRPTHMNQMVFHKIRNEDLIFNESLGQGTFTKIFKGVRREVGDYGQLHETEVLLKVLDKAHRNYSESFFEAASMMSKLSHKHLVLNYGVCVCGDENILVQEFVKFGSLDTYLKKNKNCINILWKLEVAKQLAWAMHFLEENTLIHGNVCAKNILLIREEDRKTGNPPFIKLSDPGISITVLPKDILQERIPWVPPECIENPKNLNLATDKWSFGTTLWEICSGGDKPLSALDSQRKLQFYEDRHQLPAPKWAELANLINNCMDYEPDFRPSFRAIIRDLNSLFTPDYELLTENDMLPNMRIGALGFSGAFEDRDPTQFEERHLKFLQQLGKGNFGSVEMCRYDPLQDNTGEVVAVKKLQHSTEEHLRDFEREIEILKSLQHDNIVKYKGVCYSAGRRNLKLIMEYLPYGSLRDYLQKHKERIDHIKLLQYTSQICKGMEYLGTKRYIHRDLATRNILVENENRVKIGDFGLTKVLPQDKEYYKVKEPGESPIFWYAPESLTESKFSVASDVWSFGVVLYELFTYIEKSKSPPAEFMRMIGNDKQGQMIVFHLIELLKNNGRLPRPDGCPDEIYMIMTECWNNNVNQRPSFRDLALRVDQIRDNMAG
Fibroblast growth factor receptor 2 (Homo sapiens), sequence (P21802 22-821 limits assumed): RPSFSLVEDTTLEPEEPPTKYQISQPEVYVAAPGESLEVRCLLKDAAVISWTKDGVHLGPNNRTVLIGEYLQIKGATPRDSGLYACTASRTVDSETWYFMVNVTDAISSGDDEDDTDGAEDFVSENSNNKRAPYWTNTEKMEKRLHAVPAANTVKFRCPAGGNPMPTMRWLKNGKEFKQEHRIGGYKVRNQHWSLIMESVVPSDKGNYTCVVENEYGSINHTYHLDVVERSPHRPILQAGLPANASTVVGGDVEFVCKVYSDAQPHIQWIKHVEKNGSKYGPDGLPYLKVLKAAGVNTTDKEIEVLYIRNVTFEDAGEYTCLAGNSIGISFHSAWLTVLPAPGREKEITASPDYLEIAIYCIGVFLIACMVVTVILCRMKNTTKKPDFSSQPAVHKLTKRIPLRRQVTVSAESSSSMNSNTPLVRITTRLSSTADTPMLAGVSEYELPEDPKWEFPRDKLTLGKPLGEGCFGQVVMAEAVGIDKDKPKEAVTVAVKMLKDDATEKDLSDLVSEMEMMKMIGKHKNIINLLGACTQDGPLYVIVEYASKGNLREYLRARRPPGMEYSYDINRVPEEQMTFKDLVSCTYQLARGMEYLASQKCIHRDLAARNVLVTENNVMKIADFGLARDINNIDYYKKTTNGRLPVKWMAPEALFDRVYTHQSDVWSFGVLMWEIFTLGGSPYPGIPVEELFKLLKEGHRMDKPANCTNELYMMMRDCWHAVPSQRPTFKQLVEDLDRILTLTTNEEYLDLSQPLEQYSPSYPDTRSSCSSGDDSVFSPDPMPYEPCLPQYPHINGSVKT
Serine/threonine-protein kinase A-Raf (Homo sapiens), sequence (P10398 whole entry): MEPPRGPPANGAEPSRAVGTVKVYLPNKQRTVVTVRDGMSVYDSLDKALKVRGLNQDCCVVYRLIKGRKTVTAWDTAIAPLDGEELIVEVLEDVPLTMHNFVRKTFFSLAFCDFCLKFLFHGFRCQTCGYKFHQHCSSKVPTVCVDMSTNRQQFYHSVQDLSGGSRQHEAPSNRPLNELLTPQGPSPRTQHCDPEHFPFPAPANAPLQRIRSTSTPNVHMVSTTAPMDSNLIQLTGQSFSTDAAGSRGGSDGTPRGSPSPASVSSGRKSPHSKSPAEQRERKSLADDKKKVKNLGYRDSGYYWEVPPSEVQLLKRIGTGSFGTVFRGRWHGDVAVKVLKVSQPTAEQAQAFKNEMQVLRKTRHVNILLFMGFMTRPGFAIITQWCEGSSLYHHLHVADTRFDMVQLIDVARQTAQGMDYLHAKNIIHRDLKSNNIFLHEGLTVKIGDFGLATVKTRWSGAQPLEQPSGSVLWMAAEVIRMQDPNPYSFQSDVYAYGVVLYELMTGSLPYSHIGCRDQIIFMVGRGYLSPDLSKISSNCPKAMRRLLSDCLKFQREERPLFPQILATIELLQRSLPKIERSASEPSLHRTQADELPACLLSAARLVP

O=C1NC2(CC2)COc2ncc(F)cc2[C@H]2COCCN2c2ccn3ncc1c3n2
Activity [1]: 103% | Papp A→B at 2 h [2]: 12 ×10⁻⁶ cm/s | CLint scaled at 1 µM [3]: 17.7 mL/min/kg | CLint scaled at 1 µM [4]: 28.8 mL/min/kg | CLint scaled at 1 µM [5]: 1500 mL/min/kg | CLint scaled at 1 µM [6]: < 10.7 mL/min/kg | fraction unbound [7]: 0.16 | fraction unbound [8]: 0.12 | fraction unbound [9]: 0.11 | fraction unbound [10]: 0.21 | IC50 (Cytochrome P450 1A2): > 100000 nM | IC50 (Cytochrome P450 2C9): 18100 nM | IC50 (Cytochrome P450 2C19): 89000 nM | IC50 (Cytochrome P450 2D6): > 100000 nM | IC50 (Cytochrome P450 3A4): > 50000 nM | Activity [11]: 93% | Activity [12]: 96% | Activity [13]: 103% | Activity [14]: 44% | clearance [15]: 19.3 mL/min/kg | IC50 (BaF3 [16]): 7.7 nM | IC50 (BaF3 [17]): 4.9 nM | IC50 (BaF3 [18]): 0.8 nM | IC50 (BaF3 [19]): 2.7 nM | IC50 (BaF3 [20]): 2.3 nM | IC50 (BaF3 [21]): 0.6 nM | efflux ratio at 2 h (in vitro): 2.8

C[C@@H]1CCc2ncc(F)cc2[C@H]2CCCN2c2ccn3ncc(c3n2)C(=O)N1 [SELITRECTINIB]
Papp A→B at 2 h [2]: 8.4 ×10⁻⁶ cm/s | CLint scaled at 1 µM [3]: 76 mL/min/kg | CLint scaled at 1 µM [4]: 92 mL/min/kg | CLint scaled at 1 µM [5]: 1350 mL/min/kg | CLint scaled at 1 µM [6]: 38 mL/min/kg | fraction unbound [7]: 0.34 | fraction unbound [8]: 0.03 | fraction unbound [9]: 0.02 | fraction unbound [10]: 0.2 | IC50 (Cytochrome P450 1A2): > 50000 nM | IC50 (Cytochrome P450 2C9): > 50000 nM | IC50 (Cytochrome P450 2C19): > 50000 nM | IC50 (Cytochrome P450 2D6): > 50000 nM | IC50 (Cytochrome P450 3A4): > 50000 nM | bioavailability [22]: 74% | Activity [23]: Toxic | IC50 (BaF3 [16]): 6.8 nM | IC50 (BaF3 [17]): 25.4 nM | IC50 (BaF3 [18]): 24.4 nM | IC50 (BaF3 [19]): 2.7 nM | IC50 (BaF3 [20]): 36.7 nM | IC50 (cells): ≤ 5 nM | IC50 (BaF3 [21]): 4.9 nM | Activity [24]: Toxic

Source: ChEMBL document CHEMBL5034019, “Discovery of the Next-Generation Pan-TRK Kinase Inhibitors for the Treatment of Cancer” (J Med Chem, 2021)
